“Also recorded” adds a separate entry of the source. Read-outs that look alike come from different tables or passages of the source.
Assays:
[1] = biological target: T1, human TRPV3 (Homo sapiens, UniProt Q8NET8); assay: In vitro Ca2+ flux counter-screen in human TRPV3 overexpressing cells; assay type: cell-based; conditions: counter-screen; read-out: TRPV3 EC50
T1 construct: expressed in transfected cells; host or cells: overexpressing cells
T1 sequence (Q8NET8 1-790): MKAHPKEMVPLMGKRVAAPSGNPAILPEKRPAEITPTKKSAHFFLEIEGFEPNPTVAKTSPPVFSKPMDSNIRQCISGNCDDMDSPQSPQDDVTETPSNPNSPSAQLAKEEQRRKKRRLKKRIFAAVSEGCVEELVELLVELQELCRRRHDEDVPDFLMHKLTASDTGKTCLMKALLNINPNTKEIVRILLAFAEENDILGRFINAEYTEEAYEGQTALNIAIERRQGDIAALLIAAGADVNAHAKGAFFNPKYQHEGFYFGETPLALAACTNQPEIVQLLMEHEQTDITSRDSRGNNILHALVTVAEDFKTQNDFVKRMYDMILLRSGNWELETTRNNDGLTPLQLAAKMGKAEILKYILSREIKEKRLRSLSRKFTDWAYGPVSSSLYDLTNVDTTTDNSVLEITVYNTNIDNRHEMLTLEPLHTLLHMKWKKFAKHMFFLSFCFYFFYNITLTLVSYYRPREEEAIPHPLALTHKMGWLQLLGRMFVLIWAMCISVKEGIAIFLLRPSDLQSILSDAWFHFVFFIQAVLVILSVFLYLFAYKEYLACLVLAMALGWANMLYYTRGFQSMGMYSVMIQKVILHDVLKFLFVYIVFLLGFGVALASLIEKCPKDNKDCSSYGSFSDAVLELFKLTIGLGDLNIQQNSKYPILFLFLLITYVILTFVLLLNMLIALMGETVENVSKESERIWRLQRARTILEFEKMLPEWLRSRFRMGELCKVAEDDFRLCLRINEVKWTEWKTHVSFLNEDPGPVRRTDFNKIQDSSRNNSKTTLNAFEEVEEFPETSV

[2] = Mouse liver microsome stability; assay type: in vitro ADME; conditions: liver microsomes, C57BL6 mouse liver microsome
[3] = test system: OVCAR-8; assay: Human cancer cell growth inhibition assay (ATP assay), OVCAR-8; assay type: cell-based; conditions: Homo sapiens, OVCAR-8, 96 h; 4 days; Means±SEM from three independent experiments; read-out: OVCAR-8, IC50
[4] = In vivo mouse PK; conditions: IV 0.4 mg/kg, C57BL6 mouse
[5] = test system: MDA-MB-231 cell invasion; assay: Cancer cell invasion assay, MDA-MB-231; assay type: cell-based, human; conditions: 24 h
Experimental: A cancer cell invasion assay was developed based on literature protocols (Methods 2005, 37, 208; EMBO J 2002, 21, 6289; Cellular Signalling 2012, 24, 1276.). Membrane matrix gel (Cat #A1413201, ThermoFisher) was diluted in ice-cold, serum-free RPMI 1640 Medium (Cat #31800022, ThermoFisher) at a concentration of 0.5-0.6 mg/mL. Then it was added to the upper compartment (100 μL per cup) of millicell inserts (Cat #PI8P01250, ThermoFisher) placed in a 24-well plate (Part no. 229123, Celltreat). The plate was incubated at 37° C. for 2 h to allow the liquid gel to solidify. RPMI 1640 Medium supplemented with 10% FBS (300 μL) was added to the well of the plate (lower compartment) as attractant, then DMSO or compounds were added. Human cancer cells (1×10^5 cells in 200 μL of RPMI 1640 Medium) were added to the upper compartment of the insert, then DMSO or compounds were added. After the plate was incubated at 37° C. for 24 h, the cells were fixed on the lower side of the insert membrane with 4% formaldehyde and stained with 1% crystal violet (Part no. IS12146, Innovating Science). The invaded cells on the lower side of the filter were counted under an inverted microscope equipped with either a 4× or a 10× objective (FIG. 11). The cell numbers from 5 random views were averaged and plotted as percentage against the DMSO control (FIG. 12A).

[6] = biological target: T2, human TRPV1 (Homo sapiens, UniProt Q8NER1); assay: In vitro Ca2+ flux assay in human TRPV1 transfected HEK 293 cells; assay type: cell-based; conditions: read-out: TRPV1 EC50
T2 construct: DYK (FLAG) tag from vector pcDNA3.1+/C-(K)DYK (C); host or cells: FreeStyle 293-F cells (HEK 293), transient transfection
T2 sequence (Q8NER1 whole entry): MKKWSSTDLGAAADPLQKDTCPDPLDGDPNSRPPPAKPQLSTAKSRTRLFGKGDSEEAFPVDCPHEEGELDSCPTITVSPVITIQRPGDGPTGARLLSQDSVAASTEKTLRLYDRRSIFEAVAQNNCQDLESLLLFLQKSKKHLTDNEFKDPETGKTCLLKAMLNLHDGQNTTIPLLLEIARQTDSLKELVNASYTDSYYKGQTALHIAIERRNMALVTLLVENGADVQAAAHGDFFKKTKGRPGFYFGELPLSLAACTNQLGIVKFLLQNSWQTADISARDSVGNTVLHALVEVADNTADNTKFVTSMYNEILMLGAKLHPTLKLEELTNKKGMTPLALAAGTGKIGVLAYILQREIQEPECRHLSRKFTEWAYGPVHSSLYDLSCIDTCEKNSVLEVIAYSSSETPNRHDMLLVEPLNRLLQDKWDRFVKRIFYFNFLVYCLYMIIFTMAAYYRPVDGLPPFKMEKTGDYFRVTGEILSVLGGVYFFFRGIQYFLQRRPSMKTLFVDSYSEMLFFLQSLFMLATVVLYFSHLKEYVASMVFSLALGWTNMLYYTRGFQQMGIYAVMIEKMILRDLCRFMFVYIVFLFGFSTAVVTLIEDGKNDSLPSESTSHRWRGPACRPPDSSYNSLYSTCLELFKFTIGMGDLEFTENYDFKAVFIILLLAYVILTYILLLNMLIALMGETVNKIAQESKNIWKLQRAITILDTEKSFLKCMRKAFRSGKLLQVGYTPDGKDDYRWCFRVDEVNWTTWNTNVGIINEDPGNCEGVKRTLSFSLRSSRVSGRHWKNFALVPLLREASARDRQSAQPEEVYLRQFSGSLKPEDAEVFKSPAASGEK

[7] = test system: NCI-H460; assay: Human cancer cell growth inhibition assay (ATP assay), NCI-H460; assay type: cell-based; conditions: Homo sapiens, NCI-H460, 96 h; 4 days; Means±SEM from three independent experiments; read-out: NCl-H460, IC50
[8] = test system: MDA-MB-231; assay: Human cancer cell growth inhibition assay (ATP assay), MDA-MB-231; assay type: cell-based; conditions: Homo sapiens, MDA-MB-231, 96 h; 4 days; Means±SEM from three independent experiments; read-out: MDA-MB-231, IC50
[9] = both, mouse, in vivo, 1 min
[10] = biological target: T3, human TRPA1 (Homo sapiens, UniProt O75762); assay: In vitro Ca2+ flux counter-screen in human TRPA1 overexpressing cells; assay type: cell-based; conditions: counter-screen; read-out: TRPA1 EC50
T3 construct: expressed in transfected cells; host or cells: overexpressing cells
T3 sequence (O75762 whole entry): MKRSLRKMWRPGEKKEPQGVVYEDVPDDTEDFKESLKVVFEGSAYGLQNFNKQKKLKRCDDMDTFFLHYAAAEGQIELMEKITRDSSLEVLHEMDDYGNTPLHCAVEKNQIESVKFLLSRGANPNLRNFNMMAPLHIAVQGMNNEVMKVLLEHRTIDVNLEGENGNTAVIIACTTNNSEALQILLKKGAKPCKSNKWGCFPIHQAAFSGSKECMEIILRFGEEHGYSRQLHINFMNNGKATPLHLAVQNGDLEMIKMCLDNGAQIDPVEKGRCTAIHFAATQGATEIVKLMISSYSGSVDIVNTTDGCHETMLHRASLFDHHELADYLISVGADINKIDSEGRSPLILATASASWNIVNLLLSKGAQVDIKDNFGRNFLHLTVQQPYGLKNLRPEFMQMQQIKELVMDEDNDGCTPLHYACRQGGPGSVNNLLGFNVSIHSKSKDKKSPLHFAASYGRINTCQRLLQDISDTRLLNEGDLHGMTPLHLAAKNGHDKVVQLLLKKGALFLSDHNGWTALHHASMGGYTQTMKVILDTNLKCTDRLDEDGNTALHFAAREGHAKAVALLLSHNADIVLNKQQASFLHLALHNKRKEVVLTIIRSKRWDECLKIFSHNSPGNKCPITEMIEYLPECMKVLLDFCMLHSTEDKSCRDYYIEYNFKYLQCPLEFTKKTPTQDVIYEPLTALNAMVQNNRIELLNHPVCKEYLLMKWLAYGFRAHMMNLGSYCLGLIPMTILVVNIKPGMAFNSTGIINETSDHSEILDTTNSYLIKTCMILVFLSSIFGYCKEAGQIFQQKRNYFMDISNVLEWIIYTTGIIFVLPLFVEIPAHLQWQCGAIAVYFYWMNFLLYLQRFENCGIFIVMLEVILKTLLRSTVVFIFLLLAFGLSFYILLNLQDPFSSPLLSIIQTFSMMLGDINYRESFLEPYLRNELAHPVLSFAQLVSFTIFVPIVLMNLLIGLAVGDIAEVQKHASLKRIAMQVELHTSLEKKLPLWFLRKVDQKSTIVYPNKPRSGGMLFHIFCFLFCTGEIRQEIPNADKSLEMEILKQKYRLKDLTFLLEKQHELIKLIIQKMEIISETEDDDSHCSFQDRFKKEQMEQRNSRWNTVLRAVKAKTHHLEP

[11] = set-up: decrease in the second phase of the formalin test: dose or concentration left out as unconfirmed; conditions: intraplantar
[12] = SubQ 6 mg/kg
[13] = biological target: T4, TRPV1 (Mus musculus, UniProt Q704Y3); assay: Ca2+ imaging of primary mouse dorsal root ganglion (DRG) neurons, TRPV1 desensitization; assay type: cell-based; conditions: then capsaicin 0.5 μM
T4 construct: DRG was isolated from male and female mice expressing GCaMP6f in neurons; endogenous in cells; host or cells: dissociated primary DRG neurons from GCaMP6f-expressing mice
T4 sequence (Q704Y3 whole entry): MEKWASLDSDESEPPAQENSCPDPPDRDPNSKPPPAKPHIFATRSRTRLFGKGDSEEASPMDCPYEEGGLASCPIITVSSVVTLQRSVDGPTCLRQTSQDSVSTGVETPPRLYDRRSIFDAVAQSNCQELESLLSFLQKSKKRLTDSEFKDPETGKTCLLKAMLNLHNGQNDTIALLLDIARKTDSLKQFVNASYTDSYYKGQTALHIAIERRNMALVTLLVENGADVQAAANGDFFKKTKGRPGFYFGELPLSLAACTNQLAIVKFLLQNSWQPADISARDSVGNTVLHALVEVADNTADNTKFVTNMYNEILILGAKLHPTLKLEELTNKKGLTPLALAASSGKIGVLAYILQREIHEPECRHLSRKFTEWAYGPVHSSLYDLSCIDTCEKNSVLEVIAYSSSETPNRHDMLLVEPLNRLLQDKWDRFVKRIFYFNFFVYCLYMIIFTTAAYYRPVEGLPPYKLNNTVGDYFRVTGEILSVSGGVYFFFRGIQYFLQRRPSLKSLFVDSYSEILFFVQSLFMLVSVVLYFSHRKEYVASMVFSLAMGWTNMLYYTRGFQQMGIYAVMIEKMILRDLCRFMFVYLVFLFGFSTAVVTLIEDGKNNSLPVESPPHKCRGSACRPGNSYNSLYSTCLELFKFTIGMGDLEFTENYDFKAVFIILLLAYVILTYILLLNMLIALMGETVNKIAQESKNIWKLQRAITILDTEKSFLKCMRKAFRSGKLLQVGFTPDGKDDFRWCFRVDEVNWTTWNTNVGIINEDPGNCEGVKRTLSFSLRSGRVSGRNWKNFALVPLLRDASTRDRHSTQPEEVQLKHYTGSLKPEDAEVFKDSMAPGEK

[14] = Operant Pain Tolerance Assay; assay type: in vivo; conditions: intraplantar
Experimental: Model 3—The ability of YB-16 to increase pain tolerance was tested using a newly published Operant Pain Tolerance Assay (eNeuro 2020, 7, ENEURO.0210-19.2020). In the assay, mice were trained to seek a sucrose reward that was on a hot 42° C. plate (versus no reward on a neutral 30° C. plate). It was noticed that intraplantar YB-16 treated mice with paw inflammatory injury [induced by Complete Freund's adjuvant (CFA) 24 hrs prior to treatment] trended to spend 145% more time on the hot side of the assay but not necessarily additional time near the sucrose bottle compared to vehicle treated mice (FIG. 10B).

[15] = Means±SEM from three independent experiments
[16] = first treatment capsaicin 0.5 μM, YB-11 0.5 μM or YB-16 1.0 μM, paired t-test

SMILES | EC50 [1] | IC50 [3] | EC50 [6, 15] | IC50 [7] | IC50 [8] | MPP [9] | EC50 [10] | animal death and sedation in formalin test [11] | other results
COc1cc(CNC(=O)CCCC/C=C/C(C)C)ccc1N [YB-2] | > 10 µM | 200 ± 22 µM | < 0.1 µM | 350 ± 25 µM | 342 ± 30 µM | 0.233 mg/mL | > 10 µM | No mice treated with YB-16, YB-11 or YB-2 died or experienced sedative reaction | CLint scaled at 2 μM [2]: 1780 mL/min/kg; λz [4]: 4.1 h⁻¹; inhibition of MDA-MB-231 cell invasion [5]: dose-dependently inhibited; EC50 ([6]; Table 3 comparison, YB-2 tested as a HCl salt): 0.082 µM; effect in the second phase of the formalin test ([11]; 2 hr prior to formalin): significant analgesic effect in the second phase for male mice only; effect on formalin spontaneous pain-like behavior ([11]; 2 hr prior to formalin): did not reduce formalin behavior at any dose tested
COCCOCCOCCC(=O)Oc1ccc(CC(=O)N/C=C/c2ccc(C(F)(F)F)cc2)cc1OC [YB-16] | > 10 µM | 16 µM | 0.93 µM | > 100 µM | > 100 µM | 0.302 mg/mL | > 10 µM | No mice treated with YB-16, YB-11 or YB-2 died or experienced sedative reaction | MPE (maximum possible effect) increase compared to vehicle [12]: 270%; TRPV1-sensitive neurons showing desensitization ([13]; first treatment 1.0 μM): 79%; area under the curve of the Ca2+ signal of the second (capsaicin) application [13, 16]: statistically significant reduction; also recorded: significantly reduced; max Ca2+ signal of the second (capsaicin) application [13, 16]: statistically significant reduction; also recorded: significantly reduced; decrease in the second phase of the formalin test ([11]; 2 hr prior to formalin): 54%; reduction of formalin first phase behavior ([11]; 2 hr prior to formalin): 60%; sedation in operant pain tolerance assay [14]: inflammatory injury with no sedation; sensitivity to hot plate after inflammatory injury ([14]; paw inflammatory injury (CFA)): trended to reduce sensitivity to hot plate after inflammatory injury compared to vehicle; also recorded: trended to increase time in a 42 °C chamber; also recorded: Trend for reduced sensitivity to hot
